Experimental data published in ChEMBL document CHEMBL4411307, “N,N'-diaryl-bishydrazones in a biphenyl platform: Broad spectrum antifungal agents” (Eur J Med Chem, 2019).
Converted amounts (≈) assume the structure as drawn. The source made the active and inactive calls. No cut-off for these calls is given here.

Experiments:
[1] = Selectivity index, ratio of compound concentration showing <20 to <30% hemolysis in mouse RBC to MIC for Candida glabrata ATCC 2001; type: toxicity; conditions: mouse red blood cells (RBC), read-out: Selectivity Index
BEAS-2B = assay: Cytotoxicity against human BEAS2B cells after 24 hrs by resazurin based assay; type: cell-based
[2] = Selectivity index, ratio of compound concentration showing <20 to <30% hemolysis in mouse RBC to MIC for Candida krusei ATCC 6258; type: toxicity; conditions: mouse red blood cells (RBC), read-out: Selectivity Index
[3] = Hemolytic activity in mouse RBC at […] after 1 hr relative to control; type: ADME, cell-based, Erythrocyte; conditions: red blood cells (erythrocytes), read-out: Activity; note: tested at 0.48 µg/mL
[4] = Selectivity index, ratio of compound concentration showing <20 to <30% hemolysis in mouse RBC to MIC for fluconazole/ITC-susceptible Candida albicans ATCC MYA-2876; type: toxicity; conditions: red blood cells (erythrocytes), read-out: Selectivity Index
[5] = Selectivity index, ratio of CC50 for human A549 cells to MIC for Aspergillus nidulans ATCC 38163; type: toxicity; conditions: read-out: Selectivity Index
[6] = Selectivity index, ratio of CC50 for human A549 cells to MIC for Candida krusei ATCC 6258; type: toxicity; conditions: read-out: Selectivity Index
[7] = Selectivity index, ratio of CC50 for human A549 cells to MIC for fluconazole/ITC-resistant Candida albicans ATCC 10231; type: toxicity; conditions: read-out: Selectivity Index
A549 = assay: Cytotoxicity against human A549 cells after 24 hrs by resazurin based assay; type: cell-based; conditions: a549, 24 h
Candida albicans [8] = assay: Antifungal activity against fluconazole/ITC-resistant Candida albicans ATCC 90819 measured after 48 hrs by CLSI M27-A3 protocol based method; type: functional; conditions: ATCC 90819, 48 h
[9] = Hemolytic activity in mouse RBC at 31.3 ug/ml after 1 hr relative to control; type: ADME, cell-based, Erythrocyte; conditions: red blood cells (erythrocytes), read-out: Activity
[10] = Hemolytic activity in mouse RBC at 1.95 ug/ml after 1 hr relative to control; type: ADME, cell-based, Erythrocyte; conditions: red blood cells (erythrocytes), read-out: Activity
[11] = Selectivity index, ratio of compound concentration showing <20 to <30% hemolysis in mouse RBC to MIC for Aspergillus terreus ATCC MYA-3633; type: toxicity; conditions: mouse red blood cells (RBC), read-out: Selectivity Index
[12] = Selectivity index, ratio of compound concentration showing <20 to <30% hemolysis in mouse RBC to MIC for fluconazole/ITC-resistant Candida albicans ATCC MYA-1237; type: toxicity; conditions: mouse red blood cells (RBC), read-out: Selectivity Index
[13] = Hemolytic activity in mouse RBC at 7.8 ug/ml after 1 hr relative to control; type: ADME, cell-based, Erythrocyte; conditions: red blood cells (erythrocytes), read-out: Activity
[14] = Selectivity index, ratio of CC50 for human A549 cells to MIC for Candida parapsilosis ATCC 22019; type: toxicity; conditions: read-out: Selectivity Index
[15] = Selectivity index, ratio of CC50 for human A549 cells to MIC for fluconazole/ITC-susceptible Candida albicans ATCC MYA-2310; type: toxicity; conditions: read-out: Selectivity Index
[16] = Selectivity index, ratio of CC50 for human A549 cells to MIC for fluconazole/ITC-resistant Candida albicans ATCC 90819; type: toxicity; conditions: read-out: Selectivity Index
Candida albicans [17] = assay: Antifungal activity against fluconazole/ITC-resistant Candida albicans ATCC MYA-1003 measured after 48 hrs by CLSI M27-A3 protocol based method; type: functional; conditions: ATCC MYA-1003, 48 h
[18] = Selectivity index, ratio of CC50 for human A549 cells to MIC for Aspergillus terreus ATCC MYA-3633; type: toxicity; conditions: read-out: Selectivity Index
Candida albicans [19] = assay: Antifungal activity against fluconazole/ITC-susceptible Candida albicans ATCC MYA-2876 measured after 48 hrs by CLSI M27-A3 protocol based method; type: functional; conditions: ATCC MYA-2876, 48 h
Aspergillus nidulans = assay: Antifungal activity against Aspergillus nidulans ATCC 38163 measured after 48 hrs by CLSI M38-A2 protocol based method; type: functional; conditions: ATCC 38163, 48 h
Nakaseomyces glabratus = assay: Antifungal activity against Candida glabrata ATCC 2001 measured after 48 hrs by CLSI M27-A3 protocol based method; type: functional; conditions: CBS 138, 48 h
Staphylococcus aureus = assay: Antibacterial activity against methicillin-resistant Staphylococcus aureus; type: functional, organism-based
[20] = Selectivity index, ratio of compound concentration showing <20 to <30% hemolysis in mouse RBC to MIC for fluconazole/ITC-resistant Candida albicans ATCC MYA-1003; type: toxicity; conditions: mouse red blood cells (RBC), read-out: Selectivity Index
[21] = Hemolytic activity in mouse RBC at 3.9 ug/ml after 1 hr relative to control; type: ADME, cell-based, Erythrocyte; conditions: red blood cells (erythrocytes), read-out: Activity
Candida albicans [22] = assay: Antifungal activity against fluconazole/ITC-resistant Candida albicans ATCC 64124 measured after 48 hrs by CLSI M27-A3 protocol based method; type: functional; conditions: ATCC 64124, 48 h
[23] = Selectivity index, ratio of CC50 for human A549 cells to MIC for fluconazole/ITC-susceptible Candida albicans ATCC MYA-2876; type: toxicity; conditions: read-out: Selectivity Index
Candida albicans [24] = assay: Antifungal activity against fluconazole/ITC-resistant Candida albicans ATCC MYA-1237 measured after 48 hrs by CLSI M27-A3 protocol based method; type: functional; conditions: ATCC MYA-1237, 48 h
[25] = Selectivity index, ratio of compound concentration showing <20 to <30% hemolysis in mouse RBC to MIC for fluconazole/ITC-resistant Candida albicans ATCC 64124; type: toxicity; conditions: red blood cells (erythrocytes), read-out: Selectivity Index
[26] = Selectivity index, ratio of CC50 for human A549 cells to MIC for fluconazole/ITC-resistant Candida albicans ATCC MYA-1003; type: toxicity; conditions: read-out: Selectivity Index
[27] = Hemolytic activity in mouse RBC at […] ug/ml after 1 hr relative to control; type: ADME, cell-based, Erythrocyte; conditions: red blood cells (erythrocytes), read-out: Activity
Pichia kudriavzevii = assay: Antifungal activity against Candida krusei ATCC 6258 measured after 48 hrs by CLSI M27-A3 protocol based method; type: functional; conditions: ATCC 6258, 48 h
[28] = Selectivity index, ratio of compound concentration showing <20 to <30% hemolysis in mouse RBC to MIC for Candida parapsilosis ATCC 22019; type: toxicity; conditions: mouse red blood cells (RBC), read-out: Selectivity Index
Aspergillus flavus = assay: Antifungal activity against Aspergillus flavus ATCC MYA-3631 measured after 48 hrs by CLSI M38-A2 protocol based method; type: functional; conditions: ATCC MYA-3631, 48 h
[29] = Hemolytic activity in mouse RBC at 62.5 ug/ml after 1 hr relative to control; type: ADME, cell-based, Erythrocyte; conditions: red blood cells (erythrocytes), read-out: Activity
Candida albicans [30] = assay: Antifungal activity against fluconazole/ITC-susceptible Candida albicans ATCC MYA-2310 measured after 48 hrs by CLSI M27-A3 protocol based method; type: functional; conditions: ATCC MYA-2310, 48 h
[31] = Selectivity index, ratio of CC50 for human A549 cells to MIC for fluconazole/ITC-resistant Candida albicans ATCC MYA-1237; type: toxicity; conditions: read-out: Selectivity Index
[32] = Selectivity index, ratio of CC50 for human A549 cells to MIC for fluconazole/ITC-resistant Candida albicans ATCC 64124; type: toxicity; conditions: read-out: Selectivity Index
[33] = Selectivity index, ratio of compound concentration showing <20 to <30% hemolysis in mouse RBC to MIC for fluconazole/ITC-resistant Candida albicans ATCC 10231; type: toxicity; conditions: red blood cells (erythrocytes), read-out: Selectivity Index
[34] = Selectivity index, ratio of CC50 for human A549 cells to MIC for Candida glabrata ATCC 2001; type: toxicity; conditions: read-out: Selectivity Index
Enterococcus = assay: Antibacterial activity against vancomycin-resistant Enterococcus; type: functional, organism-based
[35] = Selectivity index, ratio of compound concentration showing <20 to <30% hemolysis in mouse RBC to MIC for Aspergillus nidulans ATCC 38163; type: toxicity; conditions: mouse red blood cells (RBC), read-out: Selectivity Index
[36] = Selectivity index, ratio of compound concentration showing <20 to <30% hemolysis in mouse RBC to MIC for fluconazole/ITC-susceptible Candida albicans ATCC MYA-2310; type: toxicity; conditions: mouse red blood cells (RBC), read-out: Selectivity Index
[37] = Selectivity index, ratio of compound concentration showing <20 to <30% hemolysis in mouse RBC to MIC for Aspergillus flavus ATCC MYA-3631; type: toxicity; conditions: mouse red blood cells (RBC), read-out: Selectivity Index
Candida parapsilosis = assay: Antifungal activity against Candida parapsilosis ATCC 22019 measured after 48 hrs by CLSI M27-A3 protocol based method; type: functional; conditions: Lodderomyces parapsilosis, ATCC 22019, 48 h
Candida albicans [38] = assay: Antifungal activity against fluconazole/ITC-resistant Candida albicans ATCC 10231 measured after 48 hrs by CLSI M27-A3 protocol based method; type: functional; conditions: ATCC 10231, 48 h
Listeria monocytogenes = assay: Antibacterial activity against Listeria monocytogenes; type: functional, organism-based
[39] = Selectivity index, ratio of compound concentration showing <20 to <30% hemolysis in mouse RBC to MIC for fluconazole/ITC-resistant Candida albicans ATCC 90819; type: toxicity; conditions: red blood cells (erythrocytes), read-out: Selectivity Index
Aspergillus terreus = assay: Antifungal activity against Aspergillus terreus ATCC MYA-3633 measured after 48 hrs by CLSI M38-A2 protocol based method; type: functional; conditions: ATCC MYA-3633, 48 h

Fc1ccc(N/N=C/c2ccc(-c3ccc(/C=N/Nc4ccc(F)cc4)cc3)cc2)cc1
selectivity ratio [1]: 1 to 32
CC50 (BEAS-2B): 8.5 µg/mL (≈ 19.9 µM)
selectivity ratio [2]: 1 to 32
hemolysis at 1 h, […] [3]: 0%
selectivity ratio [4]: 1 to 32
selectivity ratio [5]: 2.3
selectivity ratio [6]: 9.1
selectivity ratio [7]: 2.3
CC50 (A549): 17.7 µg/mL (≈ 41.5 µM)
MIC (Candida albicans [8]): 31.3 µg/mL (≈ 73.4 µM)
hemolysis at 1 h, 31.3 ug/ml [9]: 9.6%
hemolysis at 1 h, 1.95 ug/ml [10]: 1.1%
selectivity ratio [11]: 1 to 32
selectivity ratio [12]: 1 to 32
hemolysis at 1 h, 7.8 ug/ml [13]: 3.2%
selectivity ratio [14]: 0.6
selectivity ratio [15]: 1.1
selectivity ratio [16]: 0.6
MIC (Candida albicans [17]): 7.8 µg/mL (≈ 18.3 µM)
selectivity ratio [18]: 0.6
MIC (Candida albicans [19]): 7.8 µg/mL (≈ 18.3 µM)
MIC (Aspergillus nidulans): 7.8 µg/mL (≈ 18.3 µM)
MIC (Nakaseomyces glabratus): 15.6 µg/mL (≈ 36.6 µM)
Activity (Staphylococcus aureus): inactive
selectivity ratio [20]: 1 to 32
hemolysis at 1 h, 3.9 ug/ml [21]: 0.7%
MIC (Candida albicans [22]): 15.6 µg/mL (≈ 36.6 µM)
selectivity ratio [23]: 2.3
MIC (Candida albicans [24]): 7.8 µg/mL (≈ 18.3 µM)
selectivity ratio [25]: 1 to 32
selectivity ratio [26]: 2.3
hemolysis at 1 h, 15.6 ug/ml ([27]; at 15.6 µg/mL): 9%
hemolysis at 1 h, 0.975 ug/ml [27]: 0%
MIC (Pichia kudriavzevii): 1.95 µg/mL (≈ 4.57 µM)
selectivity ratio [28]: 1 to 32
MIC (Aspergillus flavus): 7.8 µg/mL (≈ 18.3 µM)
hemolysis at 1 h, 62.5 ug/ml [29]: 28.3%
MIC (Candida albicans [30]): 15.6 µg/mL (≈ 36.6 µM)
selectivity ratio [31]: 2.3
selectivity ratio [32]: 1.1
selectivity ratio [33]: 1 to 32
selectivity ratio [34]: 1.1
Activity (Enterococcus): inactive
selectivity ratio [35]: 1 to 32
selectivity ratio [36]: 1 to 32
selectivity ratio [37]: 1 to 32
MIC (Candida parapsilosis): 31.3 µg/mL (≈ 73.4 µM)
MIC (Candida albicans [38]): 7.8 µg/mL (≈ 18.3 µM)
Activity (Listeria monocytogenes): inactive
selectivity ratio [39]: 1 to 32
MIC (Aspergillus terreus): > 31.3 µg/mL
